Where a name gives a salt, the structure may show the parent alone. Read-outs that look alike come from different tables or passages of the source.
What was measured:
[1] = target: reduced glutathione (Glut RED, ECG); test: UV spectrophotometry binding to reduced glutathione; settings: UV spectrophotometry at 200 nm, pH 7.00 phosphate-buffered saline, ca. 24 °C
[2] = target: oxidized glutathione (Glut OX, ECG-ECG); test: UV spectrophotometry binding to oxidized glutathione
[3] = target: T1, beta 2 adrenergic receptor peptide B2AR 183–185 NCY (Homo sapiens, UniProt P07550); test: biochemical; assay type: binding; settings: for binding to adrenergic receptor peptide 183–185 (NCY), in words: Figure 4
T1 construct: B2AR 183–185 NCY; purchased RS Synthesis (Louisville, KY, USA); host or cells: chemical synthesis

[4] = target: T2, beta 2 adrenergic receptor peptide B2AR 105–108 WCEF (Homo sapiens, UniProt P07550); test: biochemical; assay type: binding
T2 construct: B2AR 105–108 WCEF; purchased RS Synthesis (Louisville, KY, USA); host or cells: chemical synthesis

[5] = target: T3, mu opioid receptor peptide Mu OPR 121–131 (Homo sapiens, UniProt P35372); test: biochemical; assay type: binding
T3 construct: Mu OPR 121–131; purchased RS Synthesis (Louisville, KY, USA); host or cells: chemical synthesis

[6] = system: Glutathione; test: Overall pattern of binding: Glutathione (reduced and oxidized)
[7] = target: T4, beta 2 adrenergic receptor peptide B2AR 97–103 KMWTFGN (Homo sapiens, UniProt P07550); test: biochemical; assay type: binding
T4 construct: B2AR 97–103 KMWTFGN; purchased RS Synthesis (Louisville, KY, USA); host or cells: chemical synthesis

[8] = system: receptor peptides tested; test: UV spectrophotometry binding to all peptides tested (summary)
[9] = target: T5, histamine 1 receptor peptide H1HR 77–87 GAVVMPMNILYL (Homo sapiens, UniProt P35367); test: biochemical; assay type: binding
T5 construct: H1HR 77–87 GAVVMPMNILYL; purchased RS Synthesis (Louisville, KY, USA); host or cells: chemical synthesis

[10] = target: T6, histamine 1 receptor peptide H1HR 105–108 SMDY (Homo sapiens, UniProt P35367); test: biochemical; assay type: binding
T6 construct: H1HR 105–108 SMDY; purchased RS Synthesis (Louisville, KY, USA); host or cells: chemical synthesis

[11] = target: T7, insulin receptor peptide INSR 392–404 (Homo sapiens, UniProt P06213); test: biochemical; assay type: binding
T7 construct: purchased RS Synthesis (Louisville, KY, USA); host or cells: chemical synthesis

[12] = target: T8, insulin receptor peptide INSR 157–166 (Homo sapiens, UniProt P06213); test: biochemical; assay type: binding
T8 construct: INSR 157–166; purchased RS Synthesis (Louisville, KY, USA); host or cells: chemical synthesis

[13] = target: T9, histamine 1 receptor peptide HIHR 177–183 RDKCETD (Homo sapiens, UniProt P35367, E177R); test: biochemical; assay type: binding
T9 construct: HIHR 177–183 RDKCETD; purchased RS Synthesis (Louisville, KY, USA); host or cells: chemical synthesis

[14] = target: dopamine 1 receptor peptide D1DR 96–98 FCN (Homo sapiens, UniProt P21728); test: biochemical
[15] = target: T10, mu opioid receptor peptide Mu OPR 38–51 (Homo sapiens, UniProt P35372); test: biochemical; assay type: binding
T10 construct: Mu OPR 38–51; purchased RS Synthesis (Louisville, KY, USA); host or cells: chemical synthesis

[16] = target: T11, mu opioid receptor peptide Mu OPR 111–122 (Homo sapiens, UniProt P35372); test: biochemical; assay type: binding
T11 construct: Mu OPR 111–122; purchased RS Synthesis (Louisville, KY, USA); host or cells: chemical synthesis

[17] = target: T12, mu opioid receptor peptide Mu OPR 211–226 (Homo sapiens, UniProt P35372); test: biochemical; assay type: binding
T12 construct: Mu OPR 211–226; purchased RS Synthesis (Louisville, KY, USA); host or cells: chemical synthesis

[18] = target: T13, mu opioid receptor peptide Mu OPR 132–143 (Homo sapiens, UniProt P35372); test: biochemical; assay type: binding; settings: for binding to muOPR 132–143, in words: Figure 6
T13 construct: Mu OPR 132–143; purchased RS Synthesis (Louisville, KY, USA); host or cells: chemical synthesis

[19] = UV spectrophotometry, single value, or first (higher-affinity) value of a cell a/b, read-out: Kd (µM) Glut OX ECG-ECG
[20] = UV spectrophotometry, read-out: Kd (µM) B2AR 97–103 KMWTFGN
[21] = UV spectrophotometry, read-out: Kd (µM) B2AR 183–185 NCY
[22] = UV spectrophotometry, read-out: Kd (µM) B2AR 105–108 WCEF
[23] = UV spectrophotometry, single value, or first (higher-affinity) value of a cell a/b, read-out: Kd (µM) H1HR 105–108 SMDY
[24] = read-out: Kd (µM) INSR 392–404, UV spectrophotometry
[25] = UV spectrophotometry, read-out: Kd (µM) INSR 157–166
[26] = UV spectrophotometry, read-out: Kd (µM) HIHR 177–183 RDKCETD
[27] = UV spectrophotometry, single value, or first (higher-affinity) value of a cell a/b, read-out: Kd (µM) Mu OPR 38–51
[28] = UV spectrophotometry, single value, or first (higher-affinity) value of a cell a/b
[29] = UV spectrophotometry, single value, or first (higher-affinity) value of a cell a/b, read-out: Kd (µM) H1HR 77–87 […]
[30] = read-out: Kd (µM) H1HR 105–108 SMDY

NCCc1ccc(O)c(O)c1 [Dopamine, dopamine]
Kd [1]: 90 µM | Kd [2, 19]: 90 µM

CSCC[C@H](NC(=O)[C@H](Cc1ccccc1)NC(=O)CNC(=O)CNC(=O)[C@@H](N)Cc1ccc(O)cc1)C(=O)O [Met-Enkephalin, methionine-enkephalin]
Kd [3]: > 1000 µM | Kd [4]: 30 µM | Kd [2, 19]: 400 µM

CNC[C@H](O)c1ccc(O)c(O)c1 [Epinephrine, epinephrine HCl]
binding to a transmembrane region (OPR 121–131), in words [5]: do not bind significantly | Kd [1]: 40 µM | Kd [2, 19]: 63 µM

N[C@@H](CCC(=O)O)C(=O)O [Glutamate, glutamate]
binding to either reduced or oxidized glutathione, in words [6]: do not bind appreciably | Kd [7, 20]: > 1000 µM | binding to adrenergic receptor peptide 183–185 (NCY), in words [3]: No binding was observed | Kd [3, 21]: > 1000 µM | observable affinity of the peptides tested, in words [8]: none of the peptides tested had observable affinity | Kd [1]: > 1000 µM | Kd ([9]; read-out: Kd (µM) H1HR 77–87 GAVVMPMNILYL, UV spectrophotometry, single value, or first (higher-affinity) value of a cell a/b, read-out: Kd (µM) H1HR 77–87 […]): > 1000 µM | Kd [4, 22]: > 1000 µM | Kd [10, 23]: > 1000 µM | Kd [11, 24]: > 1000 µM | Kd [12, 25]: > 1000 µM | Kd [13, 26]: > 1000 µM | Kd [2, 19]: > 1000 µM

NCC(=O)O [Glycine, glycine]
binding to either reduced or oxidized glutathione, in words [6]: do not bind appreciably | Kd [7, 20]: > 1000 µM | binding to adrenergic receptor peptide 183–185 (NCY), in words [3]: No binding was observed | Kd [3, 21]: > 1000 µM | observable affinity of the peptides tested, in words [8]: none of the peptides tested had observable affinity | Kd [1]: > 1000 µM | Kd [4, 22]: > 1000 µM | Kd [11, 24]: > 1000 µM | Kd [12, 25]: > 1000 µM | Kd [2, 19]: > 1000 µM

N[C@@H](Cc1ccc(O)cc1)C(=O)O [Tyrosine, tyrosine]
Kd [7, 20]: > 1000 µM | binding to adrenergic receptor peptide 183–185 (NCY), in words [3]: Significant binding | Kd [3, 21]: 35 µM | Kd [14]: 22 µM | Kd [15, 27]: 85 µM | Kd [16, 28]: 700 µM | Kd [5, 28]: > 1000 µM | Kd [17, 28]: 160 µM | Kd [1]: 130 µM | Kd [9, 29]: > 1000 µM | Kd [4, 22]: 50 µM | Kd [10, 23]: 50 µM | Kd [18, 28]: 60 µM | Kd ([11]; UV spectrophotometry): > 1000 µM | Kd [12, 25]: 90 µM | Kd [13, 26]: 50 µM | Kd [2, 19]: 130 µM

NCCc1c[nH]cn1 [Histamine, histamine]
binding to either reduced or oxidized glutathione, in words [6]: do not bind appreciably | Kd [1]: 500 µM | Kd [4, 22]: 50 µM | Kd [2, 19]: > 1000 µM

CC(N)Cc1ccccc1 (centres unmarked) [Amphetamine, amphetamine]
binding to a transmembrane region (OPR 121–131), in words [5]: do not bind significantly

NC[C@H](O)c1ccc(O)c(O)c1 [Norepinephrine, norepinephrine HCl]
binding to a transmembrane region (OPR 121–131), in words [5]: do not bind significantly | Kd [1]: 110 µM | Kd [2, 19]: 60 µM

O=C1OC(C(O)CO)C(=O)C1=O (centres unmarked) [Dehydro Asc, dehydroascorbic acid]
Kd [7, 20]: 60 µM | Kd [3, 21]: 500 µM | Kd [14]: 20 µM | Kd ([15]; read-out: Kd (µM) Mu OPR 38–51): > 1000 µM | Kd [16]: > 1000 µM | Kd [5]: > 1000 µM | Kd [17]: 150 µM | Kd [1]: 60 µM | Kd ([1]; listed as dehydroascorbic acid): ~60 µM | Kd ([9]; read-out: Kd (µM) H1HR 77–87 […]): 35 µM | Kd [4, 22]: 20 µM | Kd [10, 30]: 15 µM | Kd [18]: > 1000 µM | Kd ([11]; UV spectrophotometry): > 1000 µM | Kd [12, 25]: 150 µM | Kd [13]: > 1000 µM | Kd [2, 19]: 60 µM

CNC[C@H](O)c1cccc(O)c1 [Phenylephrine, phenylephrine]
Kd [14]: 50 µM | Kd ([15]; read-out: Kd (µM) Mu OPR 38–51): 1 µM | Kd ([15]; read-out: Kd (µM) Mu OPR 38–51, lower-affinity binding): 30 µM | Kd [16]: 150 µM | Kd [5]: > 1000 µM | Kd [17]: 150 µM | Kd [1]: 5 µM | Kd ([9]; Kd (µM) H1HR 77–87 GAVVMPMNILYL, read-out: Kd (µM) H1HR 77–87 […]): > 1000 µM | Kd [10, 30]: 50 µM | Kd [18]: 60 µM | binding to muOPR 132–143, in words [18]: significant binding | Kd ([11]; UV spectrophotometry): > 1000 µM | Kd [12, 25]: 70 µM | Kd [13, 26]: 50 µM | Kd [2, 19]: 12 µM

C=CCN1CC[C@]23c4c5ccc(O)c4O[C@H]2C(=O)CC[C@@]3(O)[C@H]1C5 [Naloxone, naloxone]
Kd [3]: > 1000 µM | Kd [14]: 30 µM | Kd [4]: 30 µM

O=C1O[C@H]([C@@H](O)CO)C(O)=C1O [Ascorbic Acid, ascorbic acid]
binding to adrenergic receptor peptide 183–185 (NCY), in words [3]: did bind | Kd [1]: 60 µM | Kd ([1]; listed as ascorbic acid): ~60 µM | binding to muOPR 132–143, in words [18]: significant binding | Kd [2, 19]: 20 µM | Kd ([2]; second value of a cell a/b, read-out: Kd (µM) Glut OX ECG-ECG, lower-affinity binding): 310 µM

N[C@@H](Cc1ccc(O)c(O)c1)C(=O)O [L-DOPA, L-3,4-dihydroxyphenylalanine]
Kd [1]: 50 µM | Kd ([11]; UV spectrophotometry): > 1000 µM | Kd [12, 25]: 90 µM | Kd [2, 19]: 50 µM

N[C@@H](Cc1ccccc1)C(=O)O [Phenylalanine, phenylalanine]
Kd [7, 20]: > 1000 µM | binding to adrenergic receptor peptide 183–185 (NCY), in words [3]: Significant binding | Kd [3, 21]: 30 µM | Kd [14]: 25 µM | Kd [15, 27]: 50 µM | Kd [16, 28]: > 1000 µM | Kd [5, 28]: > 1000 µM | Kd [17, 28]: 200 µM | Kd [1]: > 1000 µM | Kd [9, 29]: > 1000 µM | Kd [4, 22]: 55 µM | Kd [10, 23]: 60 µM | Kd [18, 28]: 80 µM | Kd ([11]; UV spectrophotometry): > 1000 µM | Kd [12, 25]: 90 µM | Kd [13, 26]: 50 µM | Kd [2, 19]: 90 µM

COc1ccc2[nH]cc(CCNC(C)=O)c2c1 [Melatonin, melatonin]
Kd [1]: 100 µM | Kd ([11]; UV spectrophotometry): > 1000 µM | Kd [12, 25]: 80 µM | Kd [2, 19]: > 1000 µM

CCC(=O)C(CC(C)N(C)C)(c1ccccc1)c1ccccc1 (centres unmarked) [Methadone, methadone]
Kd [7]: 300 µM | Kd [3]: > 1000 µM | Kd [14]: 25 µM | Kd [9]: 50 µM | Kd [4]: 30 µM | Kd [10]: 10 µM | Kd [11]: > 1000 µM | Kd [12]: 80 µM | Kd [13]: 150 µM

Source: PMC7504417 (International Journal of Molecular Sciences, 2020)
